1 compound from article PMC11567856, “A novel peptide‐based tau aggregation inhibitor as a potential therapeutic for Alzheimer's disease and other tauopathies” (Alzheimer's & Dementia, 2024) can be followed below.

A short description of data set [1]: ThT fluorescence, self-assembly of peptide inhibitors without Tau. The following applies: ThT end-point 216 h (9 days); 20 µM peptide, PBS, 1 mM DTT, 20 µM ThT, 10 µM heparin, pH 7.4; n=3. In kind it is physicochemical. As to the method:
(§1) Fluorescence was measured (λex = 442 nm, λem = 483 nm), and data were normalized. […] The addition of inhibitor to the growth phase was controlled by adding an equivalent volume of buffer alone.
(§2) Experiments were conducted in triplicate and error bars were reported as standard deviation. Statistical analysis: p > 0.05, *p ≤ 0.05, **p ≤ 0.01, ***p ≤ 0.001.

The target of data set [2] is T1, Tau^Δ1‐250 (Homo sapiens, UniProt P10636).
T1 construct: Tau^Δ1‐250 (an aggregate prone truncated version of full‐length Tau); made in house; host or cells: E. coli BL21(DE3)
Nature of the data set: Congo-red staining of Tau^Δ1‐250 fibrils. In kind it is biochemical. Particulars: Tau^Δ1‐250 incubated in the presence of RI‐AG03 (Figure S11). As to the method: Tau filament formation is expected to coincide with a reduction in disordered structure and an increase in β‐sheet content, even as the intermediary on‐pathway oligomers form.[67] […] However, the off‐pathway Tau aggregates that we have previously described have reduced β‐sheet content.[69] To study the β‐sheet content of the large amorphous aggregates formed in the presence of RI‐AG03, samples were analyzed using time‐resolved circular dichroism (CD) to investigate spectra changes indicative of secondary structure in the presence of RI‐AG03 over 5 h (Tau^Δ1‐250 aggregation plateaus at ∼5 h) (Figure 4E). The negative transition at 195 nm is characteristic of random coil structures being present within the Tau^Δ ^1‐250 (blue). […] Although challenging to deconvolute the increase in the negative ellipticity between ∼205 and 235 nm is consistent with the appearance of secondary structural elements including β‐strands. […] This reduction in β‐sheet content is corroborated by congo‐red staining, where the strong apple‐green birefringence observed for the Tau^Δ1‐250 fibrils was eliminated when the Tau^Δ1‐250 was incubated in the presence of RI‐AG03 (Figure S11).

Data set [3] has as its target T1, Tau^Δ1‐250. Nature of the data set: ThT fluorescence, heparin-induced aggregation of Tau^Δ1‐250. In kind it is biochemical. As to the method:
as §1, §2

A further data set relates to Elav/hTau^2N4R flies. Nature of the data set: Drosophila survival assay, hTau^2N4R pan-neuronal. In kind it is in vivo, Drosophila melanogaster. Further details: unit of the concentration uncertain. As to the method: Drosophila survival assays: Elav‐GAL4 (BDSC_458) female flies were crossed with male UAS‐Tau^2N4R flies or with gender‐matched Oregon‐R (WT) flies. Survival of 10 cohorts of 10 male flies expressing hTau^2N4R pan‐neurally and reared on a diet containing 0.08 or 0.8 µM RI‐AG03 was assessed as previously described.[49] Statistics and reproducibility: Data were collected in ≥triplicate and expressed as mean ± standard error of the mean. […] This test analyzed outcomes related to the treatment effects of peptide inhibitors against Tau aggregation at multiple time points, controlling for individual variability and ensuring that changes observed were significant. For the Drosophila survival data, a Kaplan–Meier survival curve was plotted, and a Log‐rank (Mantel–Cox) test was performed on the data using GraphPad Prism software[49] This test analyzed survival outcomes by comparing survival distribution between groups, without assuming a specific distribution for survival times. AFM data were analyzed by unpaired t‐test with Welch's correction as we made the assumption, from previous similar studies, that the two populations (Tau enriched preps isolated from flies fed or not fed RI‐AG03) had the […].

For data set [4], the system named is Drosophila expressing hTau^2N4R in retinal photoreceptors. Nature of the data set: Drosophila eye experiments (GMR‐hTau^2N4R rough eye, eye size). In kind it is in vivo, Drosophila melanogaster. As to the method: Drosophila eye experiments: UAS-Tau^2N4R flies (BDSC_51363) were recombined to GMR-GAL4 (BDSC_8605) driver to generate stable GMR-hTau^2N4R lines (BDSC_51361). GMR-GAL4 was used as the “healthy” control. Progeny was reared on standard fly food supplemented with RI-AG03; 0.08, 0.8, 20, and 40 μM at 25°C. As controls, Tau, and driver-alone flies were incubated without the inhibitor. Freshly eclosed flies were monitored daily using a light microscope and 1-day-old live flies were imaged (n = 5/treatment) and processed on ImageJ to measure eye width. Ommaditial disorderliness quantification was done using Flynotyper ImageJ plugin.[48] Quantification of rough eye phenotype: Quantitative analysis of the total distance ommatidial disorderliness index of all stable ommatidia [Odld] was performed using the ImageJ plugin “Flynotyper.”[48] Analysis was performed using images taken by light microscope, and 150 ommatidia were considered and ranked by stability and distance to the center. Between four and five animals per genotype were analyzed. Scanning Electron Microscopy (SEM): Flies were euthanized, fixed in 2.5% glutaraldehyde in PBS, and had three 5-min washes in PBS. Samples were dehydrated for 30-min at each ethanol concentration: 50%, 70%, 80%, 90%, and 100%. Samples were transferred to hexamethyldisilazane for two 30-min changes, after which hexamethyldisilazane was sublimated overnight. […]

The target in the next data set is T2, Tau^2N4R (Homo sapiens, UniProt P10636).
T2 construct: and full‐length Tau (Tau^2N4R); made in house; host or cells: E. coli BL21
Nature of the data set: ThT fluorescence end-point, heparin-induced aggregation of Tau^2N4R. In kind it is biochemical. As to the method:
as §1
(§3) FIGURE 3 Lead peptide RI‐AG03 dose‐response and target specificity. […] (C) Concentration‐dependent inhibition of by Tau^Δ1‐250 by RI‐AG03. […] (E) Concentration‐dependent inhibition of by Tau^2N4R by RI‐AG03. […] (F) log10 scatter graph of Tau^2N4R inhibition by RI‐AG03 employing a curve fitting algorithm to calculate the IC50 at 5 µM. Experiments were conducted in triplicate and error bars were reported as standard deviation. One factor repeated measures ANOVA + Tukey post hoc statistical analysis: p > 0.05, *p ≤ 0.05, **p ≤ 0.01, ***p ≤ 0.001.

In the next data set the target is T3, VQIINK (Homo sapiens, UniProt P10636).
T3 construct: ^275VQIINK^280 hexapeptide (motif found in three isoforms)
Nature of the data set: ThT fluorescence, aggregation of VQIINK peptide. Type of data set: biochemical. The following applies: ThT end-point 24 h; 20 µM VQIINK, 20 µM RI‐AG03 (equimolar), 5 µM heparin, pH 7.4; alone or combined with VQIVYK. On the procedure: as §1, §3

Structures are written as SMILES. Where a SMILES comes first, the peptide text is derived from it. [ ]: non-standard residue; d: D form.

T1 sequence (P10636 568-758, stated change not applied): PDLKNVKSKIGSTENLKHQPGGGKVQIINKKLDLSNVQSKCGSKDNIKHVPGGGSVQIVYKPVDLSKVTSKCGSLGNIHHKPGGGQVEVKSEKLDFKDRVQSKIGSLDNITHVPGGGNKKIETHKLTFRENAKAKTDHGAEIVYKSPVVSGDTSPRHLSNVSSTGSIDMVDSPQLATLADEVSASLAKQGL
T2 sequence (P10636 1-441 isoform P10636-8): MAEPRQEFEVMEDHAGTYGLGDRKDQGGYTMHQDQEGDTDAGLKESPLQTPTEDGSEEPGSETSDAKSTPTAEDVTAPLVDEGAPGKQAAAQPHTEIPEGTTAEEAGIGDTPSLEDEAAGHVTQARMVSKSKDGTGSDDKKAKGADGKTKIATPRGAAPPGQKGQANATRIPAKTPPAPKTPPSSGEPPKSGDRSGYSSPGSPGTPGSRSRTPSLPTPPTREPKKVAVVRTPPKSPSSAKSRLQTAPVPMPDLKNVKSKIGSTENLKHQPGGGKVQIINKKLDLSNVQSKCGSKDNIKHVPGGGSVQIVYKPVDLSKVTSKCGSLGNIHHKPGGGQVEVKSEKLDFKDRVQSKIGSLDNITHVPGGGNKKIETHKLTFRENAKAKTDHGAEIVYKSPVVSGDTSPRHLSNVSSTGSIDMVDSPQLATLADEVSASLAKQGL
Experimental for HEK‐293 cells: (B) LDH cytotoxicity assay using varying concentrations of RI‐AG03 co‐incubated with HEK‐293 cells. LDH Cytotoxicity (%) denotes lysed cells. Cells were seeded to a 96‐well plate at 10,000 cells/100 µL per well. […] Experiments were conducted in triplicate.

In the case of `CC[C@@H](C)[C@@H](NC(=O)[C@@H](CCCCNC(C)=O)NC(=O)[C@@H](Cc1ccc(O)cc1)NC(=O)[C@@H](CCCCN)NC(=O)[C@H]1CCCN1C(=O)CNC(=O)[C@@H](CCCNC(=N)N)NC(=O)[C@@H](CCCNC(=N)N)NC(=O)[C@@H](CCCNC(=N)N)NC(=O)[C@@H](CCCNC(=N)N)NC(=O)[C@@H](CCCNC(=N)N)NC(=O)[C@@H](CCCNC(=N)N)NC(=O)[C@@H](CCCNC(=N)N)NC(=O)[C@@H](CCCNC(=N)N)NC(C)=O)C(=O)N[C@H](CCC(N)=O)C(=O)N[C@@H](C(=O)NCC(=O)N[C@H](CCCNC(=N)N)C(N)=O)C(C)C` [RI‐AG03] (Ac-[dR][dR][dR][dR][dR][dR][dR][dR]G[dP][dK][dY][dK](Ac)[dI][dQ][dV]G[dR]-NH2), in data set [1], the “self-association into β‐sheets over 216 h” value is on record as “does not self‐associate into β‐sheets”. Besides, the “apple‐green birefringence of Tau^Δ1‐250 fibrils (congo‐red)” value at Tau^Δ1‐250 [2] is “eliminated”. This compound displayed an IC50 against Tau^Δ1‐250 [3] of 7.83 µM. Moreover, on Tau^Δ1‐250 [3] (ThT end-point after 24 h, 37°C, 20 µM Tau^Δ1‐250, 20 µM peptide (equimolar), 5 µM heparin, 30 mM Tris, 1 mM DTT, 15 µM ThT, pH 7.4, triplicate), the “inhibition of Tau^Δ1‐250 aggregation” value is recorded as approximately 94%. Besides, at Tau^Δ1‐250 [3] (ThT kinetics 12 h, 20 µM Tau^Δ1‐250, 20 µM RI‐AG03 added 1 h after aggregation was initiated), the “effect when added during the growth phase of Tau^Δ1‐250 aggregation” value was “halted any further aggregation”. In the data set with Elav/hTau^2N4R flies (high‐dose (0.8 µM) in diet, pan‐neuronal hTau^2N4R male flies, untreated 26 days, n = 100, p < 0.0005), the “median survival of hTau^2N4R flies, high dose” value was 35 days. The “improvement of median survival of hTau^2N4R flies, high dose” value with Elav/hTau^2N4R flies (high‐dose (0.8 µM) in diet, versus untreated 26 days, n = 100) was found to be 35%. For the same compound, in the data set with Elav/hTau^2N4R flies (low‐dose (0.08 µM) in diet, pan‐neuronal hTau^2N4R male flies, untreated 26 days, n = 100, p < 0.0005), the “median survival of hTau^2N4R flies, low dose” value is 33 days. In the data set with Elav/hTau^2N4R flies (low‐dose (0.08 µM) in diet, versus untreated 26 days, n = 100), the “improvement of median survival of hTau^2N4R flies, low dose” value was 27%. Further, the “eye size of hTau^2N4R transgenics” value in data set [4] (GMR‐hTau^2N4R flies reared on food with 40 µM RI‐AG03, 25°C, versus untreated, n = 5/treatment) was “significantly improved”. Further, the “ommatidial disorganization (Odld, Flynotyper)” value in data set [4] (GMR‐hTau^2N4R flies treated with RI‐AG03, n=4-5/condition) was “significantly improved”. Moreover, the IC50 against Tau^2N4R turned out to be 5 µM. The “ThT signal at 9 days, peptide added after 24 h of Tau^2N4R aggregation” value at Tau^2N4R (20 µM Tau^2N4R, 20 µM RI‐AG03 added after 24 h, read at 216 h, versus negative control) is recorded as “reduction of ThT signal”. Besides, the “ThT signal at 9 days, peptide added after 72 h of Tau^2N4R aggregation” value on Tau^2N4R (20 µM Tau^2N4R, 20 µM RI‐AG03 added after 72 h, read at 216 h, versus negative control) is on record as “no reduction of ThT signal”. The “effect on aggregation of VQIINK peptide” value at VQIINK is “dramatically reduced”. In the data set on HEK‐293 cells, the “concentration at which toxicity begins to increase (LDH cytotoxicity)” value stood at 40 µM and the “doses found non‐toxic (LDH cytotoxicity)” value is on record as “up to 30 µM”.

Usually IC50 stands for the concentration at which inhibition is half-maximal.
